{"source": "ChEMBL document CHEMBL3758149", "about": "“3-(Piperidin-4-ylmethoxy)pyridine Containing Compounds Are Potent Inhibitors of Lysine Specific Demethylase 1” (J Med Chem, 2016)", "data": [{"biological_target": "T1, Amine oxidase [flavin-containing] A (Homo sapiens, UniProt P21397)", "T1 sequence (P21397 whole entry)": "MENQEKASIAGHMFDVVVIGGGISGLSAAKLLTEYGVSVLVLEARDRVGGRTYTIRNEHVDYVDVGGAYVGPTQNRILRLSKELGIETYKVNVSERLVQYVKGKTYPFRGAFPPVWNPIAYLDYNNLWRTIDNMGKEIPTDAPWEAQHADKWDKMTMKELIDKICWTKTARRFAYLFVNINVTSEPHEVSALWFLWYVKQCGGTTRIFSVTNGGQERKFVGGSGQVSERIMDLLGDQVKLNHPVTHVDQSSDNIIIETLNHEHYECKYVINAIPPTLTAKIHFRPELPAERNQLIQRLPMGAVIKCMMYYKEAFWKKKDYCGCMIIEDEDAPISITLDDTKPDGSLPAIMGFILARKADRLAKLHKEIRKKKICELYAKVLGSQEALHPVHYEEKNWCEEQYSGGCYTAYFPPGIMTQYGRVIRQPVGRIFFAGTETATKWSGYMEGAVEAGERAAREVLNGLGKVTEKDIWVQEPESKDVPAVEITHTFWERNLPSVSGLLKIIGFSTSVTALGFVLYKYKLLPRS", "units": {"Ki": "µM"}, "description": "Inhibition of recombinant human MAO-A after 60 mins MAO-glo assay", "values": [{"smiles": "N#Cc1ccc(-c2cc(OCC3CCNCC3)cnc2-c2ccccc2)cc1", "Ki": "> 50"}, {"smiles": "N#Cc1ccc(-c2cc(OCC3CCNCC3)cnc2-c2ccc(OC(F)(F)F)cc2)cc1", "Ki": "> 50"}, {"smiles": "Cc1ccc(-c2ncc(OCC3CCNCC3)cc2-c2ccc(C#N)cc2)cc1", "Ki": "> 50"}, {"smiles": "N#Cc1ccc(-c2cc(OCC3CCNCC3)cnc2-c2ccc(C(F)(F)F)cc2)cc1", "Ki": "> 50"}]}, {"biological_target": "T2, Lysine-specific histone demethylase 1A (Homo sapiens, UniProt O60341)", "units": {"Ki": "µM"}, "values": [{"smiles": "Cc1ccc(-c2ncc(OCC3CCNCC3)cc2-c2ccc(CN3CCCCC3)cc2)cc1", "Ki": "> 50"}, {"smiles": "N#Cc1ccc(-c2ncc(OCC3CCNCC3)nc2-c2ccc(C#N)cc2)cc1", "Ki": 9.1}, {"smiles": "Cc1ccc(-c2ncc(OCC3CCNCC3)cc2-c2ccc(C(=O)N3CCOCC3)cc2)cc1", "Ki": "> 50"}, {"smiles": "Cc1ccc(-c2ncc(OCc3ccccc3)cc2-c2ccc(C#N)cc2)cc1", "Ki": "> 50"}, {"smiles": "N#Cc1ccc(-c2nc(OCC3CCNCC3)cnc2-c2ccc(Br)cc2)cc1", "Ki": 0.54}, {"smiles": "c1ccc(-c2ccc(OCC3CCNCC3)cn2)cc1", "Ki": "> 50"}, {"smiles": "C#Cc1ccc(-c2cc(OCC3CCNCC3)cnc2-c2ccc(C)cc2)cc1", "Ki": "> 50"}, {"smiles": "Brc1ccc(-c2ncc(OCC3CCNCC3)nc2-c2ccc(Br)cc2)cc1", "Ki": 26.2}, {"smiles": "N#Cc1ccc(-c2ncc(OCC3CCNCC3)nc2-c2ccc(Br)cc2)cc1", "Ki": 16.5}, {"smiles": "Cc1ccc(-c2ncc(OCC3CCNCC3)cc2-c2ccc(C(=O)N3CCNCC3)cc2)cc1", "Ki": "> 50"}, {"smiles": "Cc1ccc(-c2ncc(OCC3CCNCC3)cc2-c2ccc(C(=O)O)cc2)cc1", "Ki": "> 50"}, {"smiles": "Cc1ccc(-c2ncc(OCC3CCNCC3)cc2-c2ccc(CO)cc2)cc1", "Ki": "> 50"}, {"smiles": "Cc1ccc(-c2ncc(OCC3CCNCC3)cc2-c2ccc(C(=O)N3CCCCC3)cc2)cc1", "Ki": "> 50"}, {"smiles": "c1ccc(-c2cc(OCC3CCNCC3)cnc2-c2ccccc2)cc1", "Ki": "> 50"}, {"smiles": "Cc1ccc(-c2ncc(O)cc2-c2ccc(C#N)cc2)cc1", "Ki": "> 50"}, {"smiles": "Cc1ccc(-c2ncc(OCC3CCNCC3)cc2-c2ccc(C(=O)NC3CC3)cc2)cc1", "Ki": "> 50"}]}, {"biological_target": "T2, Lysine-specific histone demethylase 1A", "remark": "another data set of the same source", "units": {"IC50": "µM"}, "values": [{"smiles": "CN1CCN(C(=O)CN[C@H]2C[C@@H]2c2ccc(-c3ccc(F)nc3)cc2)CC1", "note": "(relative stereo)", "IC50": 0.077}]}]}
